Values after ≈ are worked out from the molar mass of the structure shown.
How the values were obtained:
Assay type in all cases: functional
[1] = Antifungal activity against Microsporum audouinii after 24 hrs by two fold dilution method
Candida albicans = assay: Antifungal activity against Candida albicans after 24 hrs by two fold dilution method
Aspergillus niger = assay: Antifungal activity against Aspergillus niger after 24 hrs by two fold dilution method
[2] = Antifungal activity against Cryptococcus neoformans after 24 hrs by two fold dilution method
[3] = Cytotoxicity against human MCF7 cells after 48 hrs by MTT assay; settings: MCF7, 48 h
Escherichia coli = assay: Antibacterial activity against Escherichia coli after 24 hrs by two fold dilution method
[4] = Antioxidant activity assessed as ABTS radical scavenging activity at 100 ug/ml after 30 mins
[5] = system: Staphylococcus epidermidis; assay: Antibacterial activity against Staphylococcus epidermidis after 24 hrs by two fold dilution method
Klebsiella pneumoniae = assay: Antibacterial activity against Klebsiella pneumoniae after 24 hrs by two fold dilution method
Pseudomonas aeruginosa = assay: Antibacterial activity against Pseudomonas aeruginosa after 24 hrs by two fold dilution method
Staphylococcus aureus = assay: Antibacterial activity against Staphylococcus aureus after 24 hrs by two fold dilution method
[6] = Antioxidant activity assessed as reduction in AAPH free radical-induced linoleic acid peroxidation activity measured at 100 ug/ml by UV spectroscopic analysis; design: scale not given: the % may be the effect or the level left
[7] = Cytotoxicity against human HeLa cells after 48 hrs by MTT assay
[8] = Cytotoxicity against human HepG2 cells after 48 hrs by MTT assay; settings: HepG2, 48 h

| Structure (SMILES) | MIC [1] | MIC (Candida albicans) | MIC (Aspergillus niger) | MIC [2] | GI50 [3] | LC50 [3] | TGI [3] | MIC (Escherichia coli) | Activity [4] | MIC [5] | MIC (Klebsiella pneumoniae) | MIC (Pseudomonas aeruginosa) | MIC (Staphylococcus aureus) | Activity [6] | GI50 [7] | LC50 [7] | TGI [7] | GI50 [8] | LC50 [8] | TGI [8] |
| --- | --- | --- | --- | --- | --- | --- | --- | --- | --- | --- | --- | --- | --- | --- | --- | --- | --- | --- | --- | --- |
| Clc1ccccc1C(c1ccccc1)(c1ccccc1)n1ccnc1 [CLOTRIMAZOLE] | 0.5 µg/mL (≈ 1.45 µM) | 1 µg/mL (≈ 2.9 µM) | 2 µg/mL (≈ 5.8 µM) | 0.5 µg/mL (≈ 1.45 µM) |  |  |  |  |  |  |  |  |  |  |  |  |  |  |  |  |
| O=[N+]([O-])c1ccc(N2C(O)CC(c3ccccc3)N2C(c2ccc3c(c2)OCO3)N2CCOCC2)c([N+](=O)[O-])c1 (stereo not drawn) | 32 µg/mL (≈ 58.2 µM) | 16 µg/mL (≈ 29.1 µM) | 8 µg/mL (≈ 14.6 µM) | 64 µg/mL (≈ 116 µM) | 12.9 µM | 87.2 µM | 45.3 µM | > 100 µg/mL | 34.5% | > 100 µg/mL | 64 µg/mL (≈ 116 µM) | 2 µg/mL (≈ 3.64 µM) | > 100 µg/mL | 29.8% | 52.9 µM | > 100 µM | 81.3 µM | 21.3 µM | 62.1 µM | 41 µM |
| CN(C)c1ccc(C(N2CCOCC2)N2C(c3ccccc3)CC(O)N2c2ccc([N+](=O)[O-])cc2[N+](=O)[O-])cc1 (stereo not drawn) | > 100 µg/mL | 2 µg/mL (≈ 3.65 µM) | > 100 µg/mL | > 100 µg/mL | 13.9 µM | > 100 µM | 28.9 µM | 8 µg/mL (≈ 14.6 µM) | 31% | 2 µg/mL (≈ 3.65 µM) | 64 µg/mL (≈ 117 µM) | 64 µg/mL (≈ 117 µM) | > 100 µg/mL | 29.6% | 29.2 µM | > 100 µM | 57.9 µM | 35.8 µM | > 100 µM | 62.3 µM |
| O=[N+]([O-])c1ccc(N2C(O)CC(c3ccccc3)N2C(c2ccc(O)cc2)N2CCOCC2)c([N+](=O)[O-])c1 (stereo not drawn) | 8 µg/mL (≈ 15.3 µM) |  | > 100 µg/mL |  |  | > 100 µM |  | > 100 µg/mL | 81.6% |  | 8 µg/mL (≈ 15.3 µM) | 15 µg/mL (≈ 28.8 µM) |  | 75.4% | 41.3 µM | > 100 µM | 87.2 µM | 36.3 µM | > 100 µM | 65.3 µM |
| COc1ccc(C(N2CCOCC2)N2C(c3ccccc3)CC(O)N2c2ccc([N+](=O)[O-])cc2[N+](=O)[O-])cc1 (stereo not drawn) | 8 µg/mL (≈ 14.9 µM) | > 100 µg/mL | > 100 µg/mL | > 100 µg/mL |  | > 100 µM |  | > 100 µg/mL | 61.2% | 8 µg/mL (≈ 14.9 µM) | > 100 µg/mL | > 100 µg/mL | 4 µg/mL (≈ 7.47 µM) | 59.1% | 31.8 µM | > 100 µM | 63.2 µM |  | > 100 µM |  |
| COc1cccc2c1C(=O)c1c(O)c3c(c(O)c1C2=O)C[C@@](O)(C(=O)CO)C[C@@H]3O[C@H]1C[C@H](N)[C@H](O)[C@H](C)O1 [DOXORUBICIN] |  |  |  |  | 0.02 µM |  | 0.21 µM |  |  |  |  |  |  |  | 0.05 µM |  | 0.41 µM | 0.01 µM |  | 0.13 µM |
| O=[N+]([O-])c1ccc(N2C(O)CC(c3ccccc3)N2C(c2c[nH]c3ccccc23)N2CCOCC2)c([N+](=O)[O-])c1 (stereo not drawn) | 8 µg/mL (≈ 14.7 µM) | 32 µg/mL (≈ 58.8 µM) | 16 µg/mL (≈ 29.4 µM) | 64 µg/mL (≈ 118 µM) | 24.4 µM | 76.3 µM | 59.3 µM | > 100 µg/mL | 27.8% | > 100 µg/mL | > 100 µg/mL | 8 µg/mL (≈ 14.7 µM) | 1 µg/mL (≈ 1.84 µM) | 34.6% | 34.2 µM | > 100 µM | 72.1 µM | 15.9 µM | 54.8 µM | 38.2 µM |
| O=[N+]([O-])c1ccc(C(N2CCOCC2)N2C(c3ccccc3)CC(O)N2c2ccc([N+](=O)[O-])cc2[N+](=O)[O-])cc1 (stereo not drawn) | 32 µg/mL (≈ 58.1 µM) |  |  | 32 µg/mL (≈ 58.1 µM) | 20.8 µM | > 100 µM | 59.3 µM | 64 µg/mL (≈ 116 µM) | 58.3% | 2 µg/mL (≈ 3.63 µM) |  |  | 1 µg/mL (≈ 1.82 µM) | 47.9% | 8.9 µM | 43.9 µM | 16.8 µM | 49 µM | > 100 µM | 77.3 µM |
| O=[N+]([O-])c1ccc(N2C(O)CC(c3ccccc3)N2C(c2ccccc2)N2CCOCC2)c([N+](=O)[O-])c1 (stereo not drawn) |  | > 100 µg/mL | > 100 µg/mL |  |  | > 100 µM |  | 8 µg/mL (≈ 15.8 µM) | 34.6% |  | > 100 µg/mL |  |  | 21.8% |  | > 100 µM |  | 43.2 µM | > 100 µM | 78.3 µM |
| O=[N+]([O-])c1ccc(N2C(O)CC(c3ccccc3)N2C(c2ccco2)N2CCOCC2)c([N+](=O)[O-])c1 (stereo not drawn) | 0.5 µg/mL (≈ 1.01 µM) | 16 µg/mL (≈ 32.3 µM) | 2 µg/mL (≈ 4.04 µM) | > 100 µg/mL | 32.1 µM | 82 µM | 56.4 µM | 64 µg/mL (≈ 129 µM) | 20.7% | 16 µg/mL (≈ 32.3 µM) | 16 µg/mL (≈ 32.3 µM) | 64 µg/mL (≈ 129 µM) | 20 µg/mL (≈ 40.4 µM) | 42.8% | 30.8 µM | 80.7 µM | 52.1 µM | 41.4 µM | > 100 µM | 64.8 µM |
| O=[N+]([O-])c1ccc(N2C(O)CC(c3ccccc3)N2C(c2ccc(Cl)cc2)N2CCOCC2)c([N+](=O)[O-])c1 (stereo not drawn) | 64 µg/mL (≈ 119 µM) | 1 µg/mL (≈ 1.85 µM) | 64 µg/mL (≈ 119 µM) | 64 µg/mL (≈ 119 µM) | 46.1 µM | > 100 µM | 85.1 µM | 0.5 µg/mL (≈ 0.926 µM) | 41.9% | > 100 µg/mL | 64 µg/mL (≈ 119 µM) | 64 µg/mL (≈ 119 µM) | 64 µg/mL (≈ 119 µM) | 32% | 51 µM | > 100 µM | 89.2 µM | 12.2 µM | 42.8 µM | 23.1 µM |
| O=C(O)c1cn(C2CC2)c2cc(N3CCNCC3)c(F)cc2c1=O [CIPROFLOXACIN] |  |  |  |  |  |  |  |  |  | 4 µg/mL (≈ 12.1 µM) | 2 µg/mL (≈ 6.04 µM) | 1 µg/mL (≈ 3.02 µM) | 0.5 µg/mL (≈ 1.51 µM) |  |  |  |  |  |  |  |
| Cc1c(C)c2c(c(C)c1O)CCC(C)(C(=O)O)O2 (stereo not drawn) |  |  |  |  |  |  |  |  | 85.2% |  |  |  |  | 62.3% |  |  |  |  |  |  |
| O=[N+]([O-])c1ccc(N2C(O)CC(c3ccccc3)N2C(c2ccccn2)N2CCOCC2)c([N+](=O)[O-])c1 (stereo not drawn) | > 100 µg/mL | 8 µg/mL (≈ 15.8 µM) | > 100 µg/mL | 8 µg/mL (≈ 15.8 µM) | 18.6 µM | 52.3 µM | 41.8 µM | > 100 µg/mL | 16.8% | > 100 µg/mL | 4 µg/mL (≈ 7.9 µM) | 32 µg/mL (≈ 63.2 µM) | 18 µg/mL (≈ 35.5 µM) | 51.3% | 21.6 µM | 87.4 µM | 54.7 µM | 29.1 µM | 67.5 µM | 46.8 µM |

From ChEMBL document CHEMBL3872243, “Synthesis of new morpholine-connected pyrazolidine derivatives and their antimicrobial, antioxidant, and cytotoxic activities” (2017)
